Assay results: patent US9663486B2, “Selectively substituted quinoline compounds” (EISAI R&D MANAGEMENT CO., LTD., priority 2013, dated 2017)
“Also recorded” adds a separate entry of the source.

Test system: auto-antibody titers (anti-dsDNA, anti-histone, anti-Sm/RNP, anti-RiboP)
Test: DBA/1 pristane lupus model, auto-antibody titers by ELISA
Assay type: in vivo, mouse
Details: DBA/1 mice, once-a-day oral dosing
Description: FIG. 1A through FIG. 1D show results of treatment with ER-888840 (5-((3R,5S)-3-amino-5-methylpiperidin-1-yl)quinoline-8-carbonitrile) in the DBA/1 pristane model. Figure Legend: Female DBA/1 mice at 10 weeks of age were given an intraperitoneal injection of 0.5 ml pristane or PBS. At 18 weeks of age animals were bled for pre-dosing baseline auto-antibody titers. Once-a-day oral dosing with Vehicle (Veh; 0.5% methyl-cellulose) or 11 mg/kg, 33 mg/kg, or 100 mg/kg of ER-888840 was begun at 18 weeks of age, 8 weeks after pristane injection and continued for 12 weeks of treatment. At the end of the experiment plasma samples were taken and anti-dsDNA and anti-histone (FIG. 1A) and anti-Sm/RNP and anti-RiboP (FIG. 1B) titers were determined by ELISA. (FIG. 1C) The expression of IFN-regulated genes in whole blood was measured by a qPCR panel after 8 weeks of treatment. […] (FIG. 1D) The interferon scores of individual mice were calculated (see Pharmacology Materials and Methods section for details regarding IFN score calculation) and groups compared using the Mann-Whitney t test.
FIG. 2A through 2E show results of treatment with ER-888840 in the DBA/1 pristane model. […] At the end of the experiment plasma was taken and anti-dsDNA (FIG. 2A), anti-RiboP (FIG. 2B), anti-histone (FIG. 2C) and anti-Sm/RNP (FIG. 2D) titers were determined by ELISA. […]

## C[C@H]1C[C@@H](N)CN(c2ccc(C#N)c3ncccc23)C1 [ER-888840, 5-((3R,5S)-3-amino-5-methylpiperidin-1-yl)quinoline-8-carbonitrile]
  effect on auto-antibody specificities: suppressed multiple auto-antibody specificities; also recorded: limited the production of several autoantibody specificities
